Like-named read-outs stand apart in the source and are kept apart here.

We go through 21 molecules from patent US10206398B2, “Five-membered C-N-attached aryl sulphide and aryl sulphoxide derivatives as pesticides” (BAYER CROPSCIENCE AKTIENGESELLSCHAFT, priority 2014, dated 2019).

One data set relates to Tetranychus urticae. Kind of data set: Tetranychus urticae - spray test, OP-resistant (bean leaf discs, 6 days). It counts as in vivo. Conditions: after 6 days; for pest or weed control at 500 g/ha: Tetranychus urticae, foliar, 144 h, read-out: efficacy (spider mites killed). The method in brief: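 Bean leaf discs carrying all stages of OP-resistant Tetranychus urticae were sprayed with compound formulated in acetone/DMF and diluted in water with 1000 ppm emulsifier. Mortality was scored after 6 days as % efficacy, where 100% means all mites were killed.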

For the next data set, the system named is Boophilus microplus. Nature of the data set: Boophilus microplus - injection test. It counts as in vivo. To be noted: 20 μg/animal, injection into engorged adult female cattle ticks, assessed after 7 days. How it is done: 1. Boophilus microplus—Injection Test
Solvent: dimethyl sulphoxide
To produce a suitable preparation of active compound, 10 mg of active compound are mixed with 0.5 ml of solvent and the concentrate is diluted with solvent to the desired concentration.
1 μl of the active compound solution is injected into the abdomen of 5 engorged adult female cattle ticks (Boophilus microplus). The animals are transferred into dishes and kept in a climate-controlled room.
Efficacy is assessed after 7 days by laying of fertile eggs. Eggs which are not visibly fertile are stored in a climate-controlled cabinet until the larvae hatch after about 42 days. An efficacy of 100% means that none of the ticks has laid any fertile eggs; 0% means that all the eggs are fertile.

The nature of data set [1]: log P determination by HPLC on reversed-phase columns (C 18), analogous to OECD Guideline 117. It counts as physicochemical. To be noted: for logP[a]: method [a]; for logP[b]: method [b]; for chromatographic logP: reversed-phase HPLC column (C 18). The method in brief:
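Reversed-phase C18 HPLC per OECD 117, two conditions: [a] pH 2.7, 0.1% formic acid water/acetonitrile, log P(HCOOH); [b] pH 7.8, 0.001 M ammonium hydrogencarbonate/acetonitrile, log P(neutral). Both use a 10–95% acetonitrile gradient; values are interpolated from retention times against C3–C16 unbranched alkan-2-ones.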

The test system of another data set is Meloidogyne incognita. Nature of the data set: Meloidogyne incognita - test. It counts as in vivo. Conditions: 20 ppm, lettuce, after 14 days. As to the method: 2. Meloidogyne incognita—Test Solvent: 125.0 parts by weight of acetone To produce a suitable preparation of active compound, 1 part by weight of active compound is mixed with the stated amount of solvent and the concentrate is diluted with water to the desired concentration. Vessels are filled with sand, active compound solution, an egg/larvae suspension of the southern root-knot nematode (Meloidogyne incognita) and lettuce seeds. The lettuce seeds germinate and the plants develop. The galls develop on the roots. After 14 days, the nematicidal efficacy in % is determined by the formation of galls. 100% means that no galls were found; 0% means that the number of galls on the treated plants corresponds to the untreated control.

For the next data set, the system named is Phaedon cochleariae. Kind of data set: Phaedon cochleariae - spray test. It is filed as in vivo. Conditions: 500 g/ha, Chinese cabbage leaf discs, after 7 days. How it is done:
4. Phaedon cochleariae—Spray Test
Solvent: 78.0 parts by weight of acetone
• 1.5 parts by weight of dimethylformamide Emulsifier: alkylaryl polyglycol ether
To produce a suitable preparation of active compound, 1 part by weight of active compound is dissolved using the stated parts by weight of solvent and made up with water containing an emulsifier concentration of 1000 ppm until the desired concentration is attained. To produce further test concentrations, the preparation is diluted with emulsifier-containing water.
After 7 days, the efficacy in % is determined. 100% means that all the beetle larvae have been killed; 0% means that no beetle larvae have been killed.

The mark [2] stands for this setting: pH 2.7, HPLC, acidic range, pH 2.7, 0.1% aqueous formic acid and acetonitrile, read-out: log P(HCOOH).
[3] abbreviates: pH 2.7, method [a], read-out: logP[a].
The mark [4] stands for this setting: pH 7.8, HPLC, neutral range, pH 7.8, 0.001 molar aqueous ammonium hydrogencarbonate and acetonitrile, read-out: log P(neutral).
The mark [5] stands for this setting: pH 7.8, method [b], read-out: logP[b].

In the case of `Cc1cc(F)c(N2C(=O)CN(C(=O)NC(C)(C)C)C2=O)cc1[S+]([O-])CC(F)(F)F` (racemic) [compound 68], the “efficacy (spider mites killed)” value in the data set on Tetranychus urticae (500 g/ha) is given as 100%. The “efficacy (laying of fertile eggs)” value with Boophilus microplus came to 100%. In addition, in data set [1], the “logP[a]” value amounted to 2.84 and the “logP[b]” value worked out at 2.75. The “nematicidal efficacy (formation of galls)” value (shortened to “nematicidal efficacy”) with Meloidogyne incognita amounted to 90%.
`Cc1cc(C)c([S+]([O-])CC(F)(F)F)cc1N1C(=O)CN(C(=O)Nc2ccc(F)cc2)C1=O` (racemic) [compound 99]: in the data set on Tetranychus urticae (100 g/ha), the “efficacy (spider mites killed)” value is 90%. Further, the “efficacy (laying of fertile eggs)” value with Boophilus microplus was 100%. Also, in data set [1], the “logP[a]” value is 3.01 and the “logP[b]” value is given as 2.92. Besides, the “nematicidal efficacy” value in the data set with Meloidogyne incognita was 90%.
As for `Cc1cc(C)c([S+]([O-])CC(F)(F)F)cc1N1C(=O)CN(C(=O)Nc2ccccn2)C1=O` (racemic) [compound 118], in data set [1], the “logP[a]” value is 2.46 and the “logP[b]” value is 2.50. The “efficacy (beetle larvae killed)” value in the data set on Phaedon cochleariae is listed as 100%.
Consider `Cc1cc(F)c(N2C(=O)CN(C(=O)NC3CC3)C2=O)cc1SCC(F)(F)F` [Ex. No. 1, N-Cyclopropyl-3-[2-fluoro-4-methyl-5-(2,2,2-trifluoroethylsulphanyl)phenyl]-2,4-dioxoimidazolidine-1-carboxamide], for which the pest or weed control at 500 g/ha in the data set with Tetranychus urticae (500 g/ha) is 100%. Moreover, the “efficacy (laying of fertile eggs)” value in the data set with Boophilus microplus was 100%. In addition, the chromatographic logP in data set [1] (setting [2]) came to 3.07; in data set [1] (setting [3]), 3.07; in data set [1] (setting [4]) it was 2.98; in data set [1] (setting [5]) it was 2.98. Besides, in the data set with Meloidogyne incognita, the “nematicidal efficacy” value is recorded as 90%.
`Cc1cc(F)c(N2C(=O)CN(C(=O)NC(C)C)C2=O)cc1SCC(F)(F)F` [Ex. No. 7]: in the data set with Tetranychus urticae (500 g/ha), the “efficacy (spider mites killed)” value stood at 100%. Moreover, the “efficacy (laying of fertile eggs)” value with Boophilus microplus was 100%. In data set [1], the “logP[a]” value was 3.34 and the “logP[b]” value stood at 3.29. The “nematicidal efficacy” value in the data set on Meloidogyne incognita amounted to 90%.
For the molecule `Cc1cc(F)c(N2C(=O)CN(C(=O)NCC(F)(F)F)C2=O)cc1SCC(F)(F)F` [Ex. No. 30, 3-[2-Fluoro-4-methyl-5-(2,2,2-trifluoroethylsulphanyl)phenyl]-2,4-dioxo-N-(2,2,2-trifluoroethyl)imidazolidine-1-carboxamide], the pest or weed control at 500 g/ha with Tetranychus urticae (500 g/ha) was 90%. Moreover, the chromatographic logP in data set [1] (setting [2]) came out at 3.28; in data set [1] (setting [3]), 3.28; in data set [1] (setting [4]), 3.21; in data set [1] (setting [5]), 3.21. Moreover, the “efficacy (beetle larvae killed)” value in the data set with Phaedon cochleariae came to 83%.
As for `Cc1cc(F)c(N2C(=O)CN(C(=O)NCC(F)(F)F)C2=O)cc1[S+]([O-])CC(F)(F)F` (stereo not shown) [Ex. No. 36, 3-[2-Fluoro-4-methyl-5-(2,2,2-trifluoroethylsulphinyl)phenyl]-2,4-dioxo-N-(2,2,2-trifluoroethyl)imidazolidine-1-carboxamide], in the data set on Tetranychus urticae (500 g/ha), the pest or weed control at 500 g/ha stood at 100%. Besides, the “efficacy (laying of fertile eggs)” value in the data set with Boophilus microplus stood at 100%. The chromatographic logP in data set [1] (setting [2]) was determined as 2.46; in data set [1] (setting [3]), 2.46; in data set [1] (setting [4]), 2.42; in data set [1] (setting [5]), 2.41. The “nematicidal efficacy” value with Meloidogyne incognita came to 90%.
On to `CCNC(=O)N1CC(=O)N(c2cc(SCC(F)(F)F)c(C)cc2F)C1=O` [compound 6], for which the “efficacy (spider mites killed)” value in the data set with Tetranychus urticae (500 g/ha) amounted to 100%. In the data set on Boophilus microplus, the “efficacy (laying of fertile eggs)” value is 100%. Moreover, in data set [1], the “logP[a]” value is given as 2.98 and the “logP[b]” value came out at 2.93. In addition, the “nematicidal efficacy” value in the data set with Meloidogyne incognita is 90%.
On to `CCNC(=O)N1CC(=O)N(c2cc([S+]([O-])CC(F)(F)F)c(C)cc2F)C1=O` (stereo not shown) [compound 9], for which the “efficacy (spider mites killed)” value in the data set with Tetranychus urticae (500 g/ha) was determined as 100%. Besides, the “efficacy (laying of fertile eggs)” value with Boophilus microplus is on record as 100%. Also, in data set [1], the “logP[a]” value was 2.05 and the “logP[b]” value is given as 2.05. For the same molecule, the “nematicidal efficacy” value with Meloidogyne incognita was 100%.
Take `Cc1cc(F)c(N2C(=O)CN(C(=O)NC(C)C)C2=O)cc1[S+]([O-])CC(F)(F)F` (stereo not shown) [compound 10]: the “efficacy (spider mites killed)” value in the data set with Tetranychus urticae (500 g/ha) turned out to be 100%. For the same molecule, in the data set with Boophilus microplus, the “efficacy (laying of fertile eggs)” value is 100%. Moreover, in data set [1], the “logP[a]” value amounted to 2.40 and the “logP[b]” value is 2.38. Further, the “nematicidal efficacy” value in the data set on Meloidogyne incognita worked out at 100%.
For `Cc1cc(F)c(N2C(=O)CN(C(=O)NCc3ccccc3)C2=O)cc1[S+]([O-])CC(F)(F)F` (stereo not shown) [compound 21], the “efficacy (spider mites killed)” value with Tetranychus urticae (500 g/ha) is 100%. Also, the “efficacy (laying of fertile eggs)” value in the data set with Boophilus microplus was 100%. For the same molecule, in data set [1], the “logP[a]” value was determined as 2.77 and the “logP[b]” value turned out to be 2.71. In addition, the “nematicidal efficacy” value in the data set on Meloidogyne incognita stood at 90%.
Regarding `Cc1cc(C)c([S+]([O-])CC(F)(F)F)cc1N1C(=O)CN(C(=O)NC(C)C)C1=O` (stereo not shown) [compound 23], the “efficacy (laying of fertile eggs)” value with Boophilus microplus is listed as 100%. Besides, in data set [1], the “logP[a]” value was 2.52 and the “logP[b]” value was found to be 2.45. Further, in the data set on Meloidogyne incognita, the “nematicidal efficacy” value worked out at 100%.
Turning to `Cc1cc(F)c(N2C(=O)CN(C(=O)Nc3cccc(CC(F)(F)F)c3)C2=O)cc1SCC(F)(F)F` [compound 37], the “efficacy (spider mites killed)” value with Tetranychus urticae (500 g/ha) stood at 100%. In data set [1], the “logP[a]” value stood at 4.32 and the “logP[b]” value was 4.24. For the same molecule, the “efficacy (beetle larvae killed)” value in the data set with Phaedon cochleariae is listed as 83%.
For `Cc1cc(C)c(N2C(=O)CN(C(=O)NCC(F)(F)F)C2=O)cc1SCC(F)(F)F` [compound 38] the same measures were 100%, 3.46, 3.33 and 100%.
For `Cc1cc(F)c(N2C(=O)CN(C(=O)Nc3ccc(F)cc3)C2=O)cc1SCC(F)(F)F` [compound 39] the same measures were 100%, 3.85, 3.75 and 100%.
With `Cc1cc(F)c(N2C(=O)CN(C(=O)Nc3cccc(F)c3)C2=O)cc1SCC(F)(F)F` [compound 42], the “efficacy (spider mites killed)” value in the data set with Tetranychus urticae (500 g/ha) turned out to be 100%. For the same molecule, the “efficacy (laying of fertile eggs)” value with Boophilus microplus amounted to 100%. Further, in data set [1], the “logP[a]” value turned out to be 3.90 and the “logP[b]” value is given as 3.94. Further, in the data set on Meloidogyne incognita, the “nematicidal efficacy” value is 90%.
Take `CCC(C)NC(=O)N1CC(=O)N(c2cc(SCC(F)(F)F)c(C)cc2F)C1=O` (stereo not shown) [compound 44]: the “efficacy (spider mites killed)” value with Tetranychus urticae (500 g/ha) stood at 100%. Further, in data set [1], the “logP[a]” value was 3.64 and the “logP[b]” value worked out at 3.58. In addition, in the data set with Phaedon cochleariae, the “efficacy (beetle larvae killed)” value stood at 100%.
For the molecule `CCC(C)NC(=O)N1CC(=O)N(c2cc([S+]([O-])CC(F)(F)F)c(C)cc2F)C1=O` (stereo not shown) [compound 47], the “efficacy (spider mites killed)” value in the data set on Tetranychus urticae (500 g/ha) turned out to be 100%. In the data set with Boophilus microplus, the “efficacy (laying of fertile eggs)” value is given as 100%. Moreover, in data set [1], the “logP[a]” value is recorded as 2.70 and the “logP[b]” value stood at 2.65. The “nematicidal efficacy” value with Meloidogyne incognita is listed as 100%.
Regarding `Cc1cc(Cl)c(N2C(=O)CN(C(=O)NCC(F)(F)F)C2=O)cc1SCC(F)(F)F` [compound 53], the “efficacy (spider mites killed)” value with Tetranychus urticae (500 g/ha) was found to be 100%. Also, in data set [1], the “logP[a]” value was found to be 3.51 and the “logP[b]” value worked out at 3.40. Further, in the data set with Phaedon cochleariae, the “efficacy (beetle larvae killed)” value is 83%.
In the case of `Cc1cc(Cl)c(N2C(=O)CN(C(=O)NCC(F)(F)F)C2=O)cc1[S+]([O-])CC(F)(F)F` (stereo not shown) [compound 63], the “efficacy (spider mites killed)” value in the data set with Tetranychus urticae (500 g/ha) is on record as 100%. For the same molecule, in the data set on Boophilus microplus, the “efficacy (laying of fertile eggs)” value amounted to 100%. In data set [1], the “logP[a]” value is given as 2.66 and the “logP[b]” value stood at 2.58.
For the molecule `O=C(NCC(F)(F)F)N1CC(=O)N(c2cc(SCC(F)(F)F)c(Cl)cc2Cl)C1=O` [compound 106], the “efficacy (spider mites killed)” value with Tetranychus urticae (500 g/ha) turned out to be 100%. In data set [1], the “logP[a]” value worked out at 3.5 and the “logP[b]” value stood at 3.53. For the same molecule, the “efficacy (beetle larvae killed)” value with Phaedon cochleariae was found to be 83%.
